The values that follow are results of earlier work, collected in US8841297B2, “Phenylimidazole derivative as PDE10A enzyme inhibitor” (H. Lundbeck A/S, priority 2009, dated 2014).

Data set [1] concerns amphetamine induced hyperactivity. The conditions noted are these: rats; cited from earlier work.
For data set [2], the system named is cataleptic effect of haloperidol. As to conditions: rats, cited from earlier work.
Data set [3] deals with PCP induced hyperactivity. The conditions noted are these: rats; cited from earlier work.

`COc1ccc(Cc2nccc3cc(OC)c(OC)cc23)cc1OC` [Papaverine, papaverine]: the “reduction of amphetamine induced hyperactivity” value in data set [1] is listed as “insignificant”. Further, the “catalepsy on its own” value in data set [2] (papaverine alone) is recorded as “did not cause catalepsy on its own”. The “effect on the cataleptic effect of haloperidol” value in data set [2] (together with haloperidol) was “potentiated the cataleptic effect”. Also, the “effect on hyperactivity induced by PCP” value in data set [3] is given as “reduced hyperactivity”.
